According to patent EP2002836B1, “Cyclocondensed azaindoles active as kinase inhibitors” (Nerviano Medical Sciences S.r.l., priority 2007, dated 2008):

Assays:
AKT3 = AKT3 (Homo sapiens, UniProt Q9Y243); assay: Biochemical assay for inhibitors of AKT3 kinase activity (33P trans-phosphorylation, Dowex resin); conditions: 1 nM enzyme, 180 microM ATP, 28.5 microM peptide substrate; read-out: AKT3 IC50 (µM) Biochem assay
Experimental: (§1) The N-terminal GST fusion proteins used for the assays were prepared according to the methods described in Kumar, C. C. Biochem. Biophys. ACTA 2001, 1526, 257-268, and in Alessi, D. R.. Biochem. J. 1998 331, 299-308.
(§2) The in vitro kinase inhibition assay was conducted in the same way as described for AKT1. The kinase assay was run with a final enzyme concentration of 1 nM, in the presence of 180 microM ATP, 0.88 nM ^33P-γ-ATP and 28.5 microM substrate, a carboxy-terminally biotinylated peptide of the following sequence: ARKRERTYSFGHHA-biotin. The peptide was obtained in batches of >95% peptide purity from PRIMM labs Inc. (Boston MA, USA).

AKT2 = biological target: T1, AKT2 (Homo sapiens, UniProt P31751); assay: Biochemical assay for inhibitors of AKT2 kinase activity (33P trans-phosphorylation, Dowex resin); conditions: 10 nM enzyme, 396 microM ATP, 8.5 microM peptide substrate; read-out: AKT2 IC50 (µM) Biochem assay
T1 construct: made in house
Experimental: as §1
as §2, with “of 10” for “of 1”, “of 396” for “of 180”, “and 8.5” for “and 28.5”

AKT1 = AKT1 (Homo sapiens, UniProt P31749); assay: FABS-NMR screening (3-FABS, 19F-labelled AKTide-like substrate) on AKT-1; format: biochemical; set-up: The active human Ser-Thr protein kinase AKT-1 Full Length was expressed as GST fusion protein; GST (cleaved yes); made in house; host or cells: insect cells; conditions: 25 nM protein, 30 µM substrate, 1.5 mM ATP; read-out: AKT1 IC50 (µM) FABS NMR assay
Experimental: The biochemical functional NMR screening on the proteins kinase AKT-1 and PKA was performed using the 3-FABS (3-Fluorine Atoms for Biochemical Screening) technique developed by C. Dalvit and the NMR group in house (C. Dalvit et al 2003 J. Am. Chem. Soc. 125 (47): 14620).
The method require the use of a ^19F-labelled substrate. The same commercial peptide was used as substrate in both enzymatic reaction: the Tyr just before the phosphorilation site in the AKTide peptide was mutated in a 3-tryfluormethyl-Phe by Bachem.
The AKTide like peptide sequence is reported below: • H-Ala-Arg-Lys-Arg-Glu-Arg-Ala-F(3-CF3)-Ser-Phe-Gly-His-His-Ala-OH
The active human Ser-Thr protein kinase AKT-1 Full Length was expressed as GST fusion protein in insect cells and then the GST was cleaved with PreScission protease. The active cycled AMP-dependent human protein kinase A PKA was expressed as polyHis-tag protein in E.Coli and purified by affinity column.
Reactions were performed in an end point format in eppendorf of 0.5 ml using the buffer solution 50mM Tris, pH 7.5, 5mM MgCl2, 1mM DTT, 8% D2O and 0.001% Triton-X-100; the final volume was of 560 µl. The substrate and protein concentration were of 30 µM and 25 nM respectively. The reactions were performed using an ATP concentration of about 9 times its KM: 150 µM in the test with PKA and 1.5 mM in the AKT-1 experiments. A sample in absence of inhibitor was run as control in order to follow the ongoing of the reaction and it represents the 0% inhibition. Different concentration compound stock solutions in DMSOd6 were made in order to add the same amount of DMSOd6 in each sample: usually the compounds stock were of 0.03, 0.2, 2, and 10 mM. 0.56 µl of these solution was added in each sample in order to reach the final compounds concentration of 30 nM, 200 nM 2 µM and 10 µM respectively; 0.56 µl of DMSOd6 was added in the control too. The reactions were quenched after about 100/120 minutes with 10 mM of Staurosporine (Sigma code:S4400), transferred into the 5 mm NMR tube (Cortec code: NE-MP5-8) and put onto the Sample Management System (SMS) autosampler for automatic data collection. The spectra were recorded using the Varian Inova 600 MHz NMR spectrometer operating at a ^19F Larmor frequency of 564 MHz and using a 5mm probe with the inner coil tuned to ^19F and the outer coil tuned to H. The data were recorded without proton decoupling with a spectral width of 12000 Hz, an acquisition time of 0.8s and a relaxation delay of 2.8s. Chemical shifts are referenced to trifluoroacetic acid.
IC50 determination was achieved by measuring the substrate signal as a function of the inhibitor concentration using one of the formulas below. […] IC50 data were analyzed with non-linear least squares methods in the Origin 5.0 software package.

Sequence of AKT3 (Q9Y243 2-479): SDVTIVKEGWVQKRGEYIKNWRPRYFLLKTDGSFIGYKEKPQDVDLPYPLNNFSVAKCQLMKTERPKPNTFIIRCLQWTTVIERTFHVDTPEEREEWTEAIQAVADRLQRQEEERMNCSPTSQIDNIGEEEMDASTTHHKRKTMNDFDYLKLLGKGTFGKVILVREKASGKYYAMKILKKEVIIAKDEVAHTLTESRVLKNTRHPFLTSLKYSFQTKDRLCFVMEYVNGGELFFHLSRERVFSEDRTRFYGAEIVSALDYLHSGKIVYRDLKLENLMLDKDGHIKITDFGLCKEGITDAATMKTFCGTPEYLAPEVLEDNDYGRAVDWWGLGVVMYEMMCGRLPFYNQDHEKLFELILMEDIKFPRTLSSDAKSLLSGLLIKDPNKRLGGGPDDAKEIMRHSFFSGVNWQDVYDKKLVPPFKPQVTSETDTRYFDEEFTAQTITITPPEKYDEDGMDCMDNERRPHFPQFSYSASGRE
T1 sequence (P31751 whole entry, species assumed): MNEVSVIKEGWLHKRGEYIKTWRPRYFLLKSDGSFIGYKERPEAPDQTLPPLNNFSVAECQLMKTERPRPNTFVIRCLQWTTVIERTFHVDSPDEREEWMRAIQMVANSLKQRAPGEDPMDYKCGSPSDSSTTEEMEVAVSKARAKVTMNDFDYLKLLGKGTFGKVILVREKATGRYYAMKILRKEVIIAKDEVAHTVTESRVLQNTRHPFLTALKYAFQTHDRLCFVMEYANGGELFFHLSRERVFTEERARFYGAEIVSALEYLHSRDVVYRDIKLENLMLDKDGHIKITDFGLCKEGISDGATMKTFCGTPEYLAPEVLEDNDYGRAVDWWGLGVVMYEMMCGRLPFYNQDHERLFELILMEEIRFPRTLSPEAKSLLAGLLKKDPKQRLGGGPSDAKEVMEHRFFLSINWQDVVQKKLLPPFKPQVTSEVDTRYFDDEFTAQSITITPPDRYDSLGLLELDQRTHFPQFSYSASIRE
Sequence of AKT1 (P31749 whole entry, the tested form may be a part): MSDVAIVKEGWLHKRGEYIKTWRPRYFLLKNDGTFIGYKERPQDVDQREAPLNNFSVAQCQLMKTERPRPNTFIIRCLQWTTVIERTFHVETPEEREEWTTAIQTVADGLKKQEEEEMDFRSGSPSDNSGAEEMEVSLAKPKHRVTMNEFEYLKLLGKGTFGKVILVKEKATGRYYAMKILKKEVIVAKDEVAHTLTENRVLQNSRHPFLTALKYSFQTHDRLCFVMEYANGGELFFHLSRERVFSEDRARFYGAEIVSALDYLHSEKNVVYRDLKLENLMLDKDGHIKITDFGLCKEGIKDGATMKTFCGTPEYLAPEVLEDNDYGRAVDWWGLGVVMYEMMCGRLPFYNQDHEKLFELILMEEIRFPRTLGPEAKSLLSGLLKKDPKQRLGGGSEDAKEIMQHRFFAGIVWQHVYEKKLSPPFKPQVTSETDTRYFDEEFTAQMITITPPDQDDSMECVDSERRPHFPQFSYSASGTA

Compound	IC50 (AKT3)	IC50 (AKT2)	IC50 (AKT1)
NC[C@H](Cc1ccccc1)NC(=O)C1=Cc2c[nH]c3nccc(c23)CC1 [Cpd. 1, N-[(1S)-2-amino-1-benzylethyl]-6,7-dihydro-2H-2,3-diazabenzo[cd]azulene-8-carboxamide]	0.032 µM	0.266 µM	0.15 µM
CC(=O)N1CC(C(=O)N[C@H](CN)Cc2ccccc2)=Cc2c[nH]c3nccc1c23 [Cpd. 3, 6-acetyl-N-[(1S)-2-amino-1-benzylethyl]-6,7-dihydro-2H-2,3,6-triazabenzo[cd]azulene-8-carboxamide]	0.187 µM	1.99 µM	0.76 µM
O=C(N[C@H](CN1CCCC1)c1ccccc1)C1=Cc2c[nH]c3nccc(c23)CC1 [Cpd. 6, N-[(1S)-1-phenyl-2-pyrrolidin-1-ylethyl]-6,7-dihydro-2H-2,3-diazabenzo[cd]azulene-8-carboxamide]	0.043 µM	0.362 µM	0.315 µM
NC[C@H](Cc1ccccc1)NC(=O)C1=Cc2c[nH]c3nccc(c23)NC1 [compound 2, N-[(1S)-2-amino-1-benzylethyl]-6,7-dihydro-2H-2,3,6-triazabenzo[cd]azulene-8-carboxamide]	0.041 µM	0.155 µM	0.03 µM
